Experimental data as given in US7112584B2, “Nonsteroidal antiinflammatory agents” (Schering AG, priority 2002, dated 2006).
Like-named read-outs stand apart in the source and are kept apart here.

How the values were obtained:
[1] = system: secretion of cytokine IL-8 in human monocyte cell line THP-1; assay: inhibition of LPS-triggered IL-8 secretion in THP-1 cells (ELISA); assay type: cell-based; parameters: Inhibition of IL-8 Secretion Efficacy: concentration or dose not given beside the values; conditions: THP-1, LPS-triggered
Method: The concentration of the cytokines was determined in the supernatant with use of commercially available ELISA kits.
The potency of the inflammation inhibition is determined by the inhibition of the secretion of cytokine IL-8 in a cellular test. […] The concentration of the cytokine was determined in the supernatant by commercially available ELISA kits. In this connection, the compounds of formula I show a high to very high potency and action (>50%) in the inhibition (see Table 4). The potency of the racemates is considerably lower than that of the pure enantiomers.

GR (IL-6 promoter) = molecular target: T1, GR (IL-6 promoter) (Homo sapiens, UniProt P04150); assay: reporter gene test in HeLa cells, transrepression, IL-6 promoter-luciferase; conditions: for Emax: HeLa, read-out: Transrepression (TR)(IL-6-Promoter) Efficacy
T1 sequence (P04150 1-777): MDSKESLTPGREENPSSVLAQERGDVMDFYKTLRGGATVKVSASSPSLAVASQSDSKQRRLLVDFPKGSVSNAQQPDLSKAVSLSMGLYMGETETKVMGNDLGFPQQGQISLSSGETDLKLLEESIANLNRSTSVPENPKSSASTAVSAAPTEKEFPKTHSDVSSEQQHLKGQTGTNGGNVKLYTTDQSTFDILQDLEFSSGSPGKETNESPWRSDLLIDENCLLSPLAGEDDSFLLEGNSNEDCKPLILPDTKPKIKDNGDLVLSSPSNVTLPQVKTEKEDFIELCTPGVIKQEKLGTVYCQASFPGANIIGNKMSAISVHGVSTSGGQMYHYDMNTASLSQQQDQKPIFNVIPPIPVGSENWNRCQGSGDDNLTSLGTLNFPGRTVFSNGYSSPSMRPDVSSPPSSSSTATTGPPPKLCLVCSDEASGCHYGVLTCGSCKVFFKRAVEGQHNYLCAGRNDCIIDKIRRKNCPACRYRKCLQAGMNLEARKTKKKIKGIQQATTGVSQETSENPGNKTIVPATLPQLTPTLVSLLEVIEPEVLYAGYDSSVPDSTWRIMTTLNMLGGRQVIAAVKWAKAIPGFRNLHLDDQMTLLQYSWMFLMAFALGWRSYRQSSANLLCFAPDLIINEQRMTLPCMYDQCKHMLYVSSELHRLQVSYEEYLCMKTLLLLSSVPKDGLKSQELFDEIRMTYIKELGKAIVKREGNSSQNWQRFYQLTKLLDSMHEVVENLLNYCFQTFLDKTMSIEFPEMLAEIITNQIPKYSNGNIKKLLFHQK
Method: (§1) The MMTV promoter (transactivation) and the IL-6 promoter (transrepression) in each case were upstream to the gene that codes for the luciferase. By means of the photometric determination of the enzyme activity of the luciferase, it was possible to measure the activation of the transcription (MMTV-promoter-construct) or the inhibition of the transcription (IL-6-promoter-construct) by the GR.
(§2) This dissociation of the mechanisms of action was determined with the aid of the reporter gene test in stable transfixed human HeLa cells. To determine the transactivation induced by the GR, the MMTV promoter, which is set before a luciferase gene, is used. Via the photometric determination of the luciferase activity, it was possible to determine the transactivation activities of the GR after binding the test compounds. The inhibition of the transcription of the luciferase gene, induced by tetradecanoyl-phorbol acetate (TPA) under the control of the IL-6 promoter or the collagenase promoter (transpression) by the GR after binding the test substances, was also determined by the measurement of luciferase activity in HeLa cells.

GR (MMTV promoter) = molecular target: T2, GR (MMTV promoter) (Homo sapiens, UniProt P04150); assay: reporter gene test in HeLa cells, transactivation, MMTV promoter-luciferase; conditions: for TA:TR EC50:IC50: MMTV promoter EC50 : IL-6 promoter IC50
T2 sequence (P04150 1-777): T1 sequence (P04150 1-777)
Method: as §1, §2

[2] = system: croton oil-induced inflammation; assay: croton oil-induced ear inflammation, edema formation in mice; assay type: in vivo; conditions: systemic, two hours before croton oil, ear weight
Method: The antiinflammatory actions of the compounds of general formula I were tested in the animal experiment by tests in the croton oil-induced inflammation in rats and mice (J. Exp. Med. (1995), 182, 99–108). In this connection, croton oil in ethanolic solution was administered topically to the animals' ears. The test substances were also administered topically or systemically simultaneously with or two hours before the croton oil. After 16–24 hours, the ear weight was measured as a yardstick of the inflammatory edema, the peroxidase activity was measured as a yardstick of the invasions of granuloctyes, and the elastase activity was measured as a yardstick of the invasion of neutrophilic granuloctyes.
The antiinflammatory action of the compounds of general formula I were tested in an animal experiment in croton oil-induced inflammation in mice and in rats (J. Exp. Med. (1995), 182, 99–108). In this connection, croton oil in ethanolic solution was administered topically to the animals' ears. The test substances were systemically administered for two hours before the croton oil. After 16–24 hours, the ear weight was measured as a yardstick for the inflammatory edema.

[3] = molecular target: T3, GR (collagenase promoter) (Homo sapiens, UniProt P04150); assay: reporter gene test in HeLa cells, transrepression, collagenase promoter-luciferase; assay type: cell-based; conditions: TPA-induced
T3 construct: endogenous in cells; host or cells: HeLa cells stably transfected with promoter-luciferase reporters (MMTV, IL-6 or collagenase promoter)
T3 sequence (P04150 1-777): T1 sequence (P04150 1-777)

[4] = HeLa cells, TPA-induced, luciferase
[5] = read-out: Transrepression (TR)(IL-6-Promoter) IC50, HeLa cells, TPA-induced, luciferase

Row | IC50 (GR (IL-6 promoter)) | Emax (GR (IL-6 promoter)) | TA:TR EC50:IC50 (GR (MMTV promoter)) | Compound | Inhibition of IL-8 Secretion Efficacy [1] | IC50 [1] | Transrepression (TR)(IL-6-Promoter) Efficacy (GR (IL-6 promoter); [4]) | IC50 (GR (IL-6 promoter); [5]) | Transactivating (TA)(MMTV-Promoter) Efficacy (GR (MMTV promoter); HeLa cells, luciferase) | other results
1 | 5.9 nM | 66% |  | Cc1noc(=O)c2ccc(NC(=O)C(O)(CC3(c4cccc5c4OCO5)CC3)C(F)(F)F)cc12 (racemic) [Example 3] | 53% |  |  |  |  | IC50 ([1]; Homo sapiens): 39 nM
2 |  |  |  | Cc1noc(=O)c2ccc(NC(=O)C(O)(CC3(c4cccc5c4OCC5)CCC3)C(F)(F)F)cc12 (racemic) [Example 14] | 61% | 71 nM | 85% | 4.2 nM |  | 
3 |  |  |  | Cc1noc(=O)c2ccc(NC(=O)C(O)(CC3(c4cccc5c4OCC5)CCC3)C(F)(F)F)cc12 (single isomer, unassigned) [Example 15] | 74% | 7.5 nM | 74% | 1.5 nM |  | 
4 | 3.8 nM | 91% |  | Cc1noc(=O)c2ccc(NC(=O)C(O)(CC(C)(C)c3cc(F)cc4c3OCO4)C(F)(F)F)cc12 (single isomer, unassigned) [Example 19] |  |  |  |  |  | 
5 | 2.2 nM | 80% | 22.3 | Cc1noc(=O)c2ccc(NC(=O)C(O)(CC3(c4cccc(F)c4O)CCC3)C(F)(F)F)cc12 (single isomer, unassigned) [Example 33] |  |  |  |  | 76% | EC50 (GR (MMTV promoter)): 49 nM
6 |  |  |  | Cc1noc(=O)c2ccc(NC(=O)C(O)(CC3(c4cccc5c4OCO5)CC3)C(F)(F)F)cc12 (single isomer, unassigned; (+)) [Example 4] | 62% | 29 nM | 80% | 1.5 nM |  | 
7 | 2.8 nM | 67% | 17.8 | CCc1noc(=O)c2ccc(NC(=O)C(O)(CC(C)(C)c3cccc4ccoc34)C(F)(F)F)cc12 (single isomer, unassigned; (+)) [Example 8, (+)-4-Ethyl-6-[4-(7-benzofuranyl)-2-hydroxy-4-methyl-2-trifluoromethylvaleroylamino]-2,3-benzoxazin-1-one] |  |  |  |  | 25% | EC50 (GR (MMTV promoter)): 50 nM; Edema Inhibition with 3 mg/kg ([2]; 3 mg/kg): 33%; Edema Inhibition with 30 mg/kg ([2]; 30 mg/kg): 52%
8 |  |  |  | C[C@@H]1C[C@H]2[C@@H]3CCC4=CC(=O)C=C[C@]4(C)[C@@]3(F)[C@@H](O)C[C@]2(C)[C@@]1(O)C(=O)CO [Dexamethasone, reference compound] |  |  | 100% |  | 100% | Transrepression (TR)(Collagenase Promoter) Efficacy [3]: 100%
9 |  |  |  | (+)-6-[3-(Benzo[1,3]dioxol-4-yl)-cyclobutyl-2-hydroxy-2-trifluoromethyl-propionyl-amino]-4-methyl-2,3-benzoxazin-1-one [Example 6] |  |  | 77% | 1.2 nM |  | Transrepression (TR)(Collagenase Promoter) Efficacy [3]: 95%; IC50 ([3]; read-out: Transrepression (TR)(Collagenase Promoter) IC50): 2.6 nM

Row | Compound | IC50 (GR (IL-6 promoter)) | Emax (GR (IL-6 promoter)) | TA:TR EC50:IC50 (GR (MMTV promoter)) | Inhibition of IL-8 Secretion Efficacy [1] | IC50 [1] | Transrepression (TR)(IL-6-Promoter) Efficacy (GR (IL-6 promoter); [4]) | IC50 (GR (IL-6 promoter); [5]) | Transactivating (TA)(MMTV-Promoter) Efficacy (GR (MMTV promoter); HeLa cells, luciferase) | other results
10 | CCc1noc(=O)c2ccc(NC(=O)C(O)(CC3(c4cccc5c4OCC5)CCC3)C(F)(F)F)cc12 (single isomer, unassigned) [Example 17] |  |  | 8.7 |  |  | 73% | 4.6 nM | 50% | EC50 (GR (MMTV promoter); read-out: Transactivating (TA)(MMTV-Promoter) EC50, HeLa cells, luciferase): 40 nM
